Experimental data as given in patent US9522935B2, “Commands and method of treating cancer via RHO pathway” (priority 2013, dated 2016).

Experiments:
HepG2 cells = experiment: MTT assay, compounds related to LD030 on HepG2 cells; format: cell-based, human; conditions: 48 hours; for inhibition at 0.1 µM / inhibition at 1 µM / inhibition at 10 µM / inhibition at 100 µM: Homo sapiens, HepG2, read-out: Effects on HepG2 Cells (inhibitory percentage)
Protocol: (§1) MTT assay was used to detect cell viability after being treated with different compounds of the present invention related to LD030. The cell lines treated were on non-small lung cancer cell line A549, HepG2 cells and Panc1 cells.
(§2) MTT preservation solution preparation: 0.5 g MTT was dissolved in 100 ml of phosphate buffer solution (PBS), and bacteria contaminates were removed with a 0.22 μm membrane filter to obtain 0.5% MTT solution, which was stored in the dark at −20° C.
(§3) MTT working solution preparation: MTT preservation solution was diluted 10 times with sterile PBS to obtain MTT working solution.
(§4) 1640 complete medium preparation: 1640 base medium was added with an amount of fetal bovine serum (FBS) so that the medium contains 10% FBS by volume. Then an amount of double-antibody (i.e., penicillin and streptomycin) was added to make final concentration of penicillin at 100 units/ml and streptomycin at 100 ug/ml.
(§5) The experimental procedure is as follows:
(§6) (1) Take trypsin digested logarithmic phase cells and adjust the concentration of the cell suspension to 6×10^4 cell/ml, and then add 100 ul suspension of the cells under the test to each well on a 96-well plate and adjusted to a density of 6000 cells/well. The edge orifice is filled with sterile PBS.
(§7) (2) Placed the 96-well plate into a 37° C. incubator with 5% CO2 and incubate it overnight.
(§8) (3) Dissolve the test compounds in 200 ul DMSO to get a 5 mg/ml solution and dilute it to get 100 uM, 10 uM, 1 uM and 0.1 uM solutions. Add 100 ul of a solution to each of three repeat wells. Set a control well which has cells but without the compound of the present invention and a blank cell which contains no cells.
(§9) (4) Put the 96-well plate into a 37° C. incubator with 5% CO2 and incubate it for 48 hours. Examine the cells daily under a microscope.
(§10) (5) After being cultured for 48 hours, centrifuge and discard the culture liquid. Add 100 ul MTT working solution to each well, and continue incubating for 4 h.
(§11) (6) Terminate the culture, and carefully remove the culture medium. Then add 100 ul DMSO to each well and shake it at a low speed in a shaker for 10 min to make all crystals fully dissolved. The absorbance value of each well was measured by an enzyme-linked immunosorbent detector at the OD570 nm, and the inhibition rate of the different compounds with different concentration on cell growth can be obtained.

Panc1 cells = experiment: MTT assay, compounds related to LD030 on Panc1 cells; format: cell-based, human; conditions: 48 hours; for inhibition at 0.1 µM / inhibition at 1 µM / inhibition at 10 µM / inhibition at 100 µM: Homo sapiens, PANC-1, read-out: Effects on Panc1 Cells (inhibitory percentage)
Protocol: as §1, §2, §3, §4, §5, §6, §7, §8, §9, §10, §11

[1] = test system: non-small lung cancer cell line A549; experiment: MTT assay, compounds related to LD030 on A549 cells; format: cell-based; conditions: for inhibition at 0.1 µM / inhibition at 1 µM / inhibition at 10 µM / inhibition at 100 µM: Homo sapiens, A549, read-out: Effects on A549 Cells (inhibitory percentage); for inhibition at 0.1 µM / inhibition at 1 µM / inhibition at 10 µM / inhibition at 100 µM / Effects on A549 Cells (inhibitory percentage): 48 hours
Protocol: as §1, §2, §3, §4, §5, §6, §7, §8, §9, §10, §11

[2] = test system: pancreatic cancer cell lines; experiment: Nude mouse model of pancreatic cancer (xenograft), tumor size; format: in vivo, NOD/SCID mice; conditions: 43 days
Protocol: Two strains of pancreatic cancer cell lines were selected to be grafted to nonobese diabetic/severe combined immunodeficient (NOD/SCID) mice, and the tumor was inoculated in mouse ventral sides. About two weeks, they were used as a nude mouse model of pancreatic cancer. […] Each of the above groups. The treatment continued for 43 days (gemcitabine alone group 2 times a week; other groups 3 times a week), and then tumor size was recorded as shown in FIG. 16. […] Further experiments were conducted to study the effects of the combinational use of LD030 with gemcitabine as compared being used alone on tumor inhibition. Four treatment groups were set up: (a) blank control, (2) gemcitabine (25 mg/kg/time, 2 times a week), (3) LD030 (0.5 mg/kg/time, 3 times a week), (4) LD030 (0.5 mg/kg/time, 3 times a week) together with gemcitabine (25 mg/kg/time, 2 times a week).

Row | SMILES | inhibition at 0.1 µM (HepG2 cells; 0.1 μM) [%] | inhibition at 1 µM (HepG2 cells; 1 μM) [%] | inhibition at 10 µM (HepG2 cells; 10 μM) [%] | inhibition at 100 µM (HepG2 cells; 100 μM) [%] | inhibition at 0.1 µM (Panc1 cells; 0.1 μM) [%] | inhibition at 1 µM (Panc1 cells; 1 μM) [%] | inhibition at 10 µM (Panc1 cells; 10 μM) [%] | inhibition at 100 µM (Panc1 cells; 100 μM) [%] | inhibition at 0.1 µM ([1]; 0.1 μM) [%] | inhibition at 1 µM ([1]; 1 μM) [%] | inhibition at 10 µM ([1]; 10 μM) [%] | inhibition at 100 µM ([1]; 100 μM) [%] | other results
1 | CC(=O)O[C@H]1CC[C@]2(C)C3=C(CC[C@H]2C1(C)C)[C@]1(C)CCC(C(C)CCC(O)C(C)(C)O)[C@@]1(C)CC3 (stereo partly drawn) [LD 021] | 12.7 | 13.1 | 12.7 | 24.6 | -12.6 | -4.96 | 2.16 | 48.8 | 3.13 | 1.31 | 1.53 | 45.5 | –
2 | CC(C)=CCC[C@@H](C)[C@H]1CC[C@@]2(C)C3=C(CC[C@]12C)[C@@]1(C)CCC(=O)C(C)(C)[C@@H]1CC3 [LD 012] | – | – | – | – | – | – | – | – | – | – | – | – | Effects on HepG2 Cells (inhibitory percentage) (HepG2 cells; 0.1 μM): 10.53%; Effects on HepG2 Cells (inhibitory percentage) (HepG2 cells; 1 μM): −15.82%; Effects on HepG2 Cells (inhibitory percentage) (HepG2 cells; 10 μM): −1.79%; Effects on HepG2 Cells (inhibitory percentage) (HepG2 cells; 100 μM): 47.72%; Effects on Panc1 Cells (inhibitory percentage) (Panc1 cells; 0.1 μM): 5.68%; Effects on Panc1 Cells (inhibitory percentage) (Panc1 cells; 1 μM): 5.68%; Effects on Panc1 Cells (inhibitory percentage) (Panc1 cells; 10 μM): 10.20%; Effects on Panc1 Cells (inhibitory percentage) (Panc1 cells; 100 μM): 39.54%; Effects on A549 Cells (inhibitory percentage) ([1]; 0.1 μM): 1.31%; Effects on A549 Cells (inhibitory percentage) ([1]; 1 μM): 28.04%; Effects on A549 Cells (inhibitory percentage) ([1]; 10 μM): 39.34%; Effects on A549 Cells (inhibitory percentage) ([1]; 100 μM): 91.76%; inhibition rate on A549 ([1]; concentration not given): more than 90%
3 | Nc1ccn([C@@H]2O[C@H](CO)[C@@H](O)C2(F)F)c(=O)n1 [gemcitabine, reference compound] | – | – | – | – | – | – | – | – | – | – | – | – | tumor volume reduced ([2]; 25 mg/kg/time gemcitabine, FIG. 15): 37%; tumor size reduced ([2]; gemcitabine 25 mg/kg/time, 2 times a week, FIG. 17): 37%
4 | CC(CCC(=O)C(C)(C)O)C1CC[C@@]2(C)C34CC[C@H]5C(C)(C)C(=O)CC[C@]5(C)C3(CC[C@]12C)O4 (stereo partly drawn) [LD 025] | -1.15 | -19.1 | -1.79 | 20.5 | -16.5 | -12.8 | -9.57 | -16 | 25.2 | 1.71 | 0.51 | 16.9 | –
5 | CC(=O)O[C@H]1CC[C@]2(C)C3=C(CC[C@H]2C1(C)C)[C@]1(C)CCC(C(C)CCC2OC2(C)C)[C@@]1(C)CC3 (stereo partly drawn) [LD 026-1] | -3.32 | -0.13 | 12.7 | 58.1 | -2.84 | 9.46 | 8.83 | 34.4 | 21.8 | 6.66 | 8.3 | 39.8 | –
6 | CC(=O)OC(CCC(C)C1CC[C@@]2(C)C3=C(CC[C@]12C)[C@@]1(C)CCC(=O)C(C)(C)[C@@H]1CC3)C(C)(C)OC(C)=O (stereo partly drawn) [LD 014] | 0.64 | -20.7 | 2.93 | 61.4 | -5.26 | -3.05 | 3.89 | 24.1 | 21.3 | 9.46 | 3.02 | 34.6 | –
